Assay results from the supplement of paper PMC10307832.

Legend:
Test in all cases: relative viability (nuclei count vs DMSO), 5 days (fraction); higher = more cells survive
[1] = compound: CN[C@@H]1C[C@H]2O[C@@](C)([C@@H]1OC)n1c3ccccc3c3c4c(c5c6ccccc6n2c5c31)C(=O)NC4 [Staurosporine] + O=C(c1cc(Cc2n[nH]c(=O)c3ccccc23)ccc1F)N1CCN(C(=O)C2CC2)CC1 [Olaparib] (partner 8 µM)
How it was run: (§1)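 For relative viability, nuclei counts in treated wells were divided by those in vehicle wells. Lung cancer cell lines had been pin-tool dosed in 1536-well plates the day after seeding and cultured for 5 days, then fixed and stained in one step (final 0.05% Triton X-100, 1% formaldehyde, 1 ug/ml Hoechst) and imaged at 4×. Doses were one drug alone or a fixed anchor-drug dose plus five library-drug doses (not always all listed) in √10 steps, and values are duplicate-plate medians.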

[2] = compound: CN[C@@H]1C[C@H]2O[C@@](C)([C@@H]1OC)n1c3ccccc3c3c4c(c5c6ccccc6n2c5c31)C(=O)NC4 [Staurosporine] + CC(=O)Nc1cccc(-n2c(=O)n(C3CC3)c(=O)c3c(Nc4ccc(I)cc4F)n(C)c(=O)c(C)c32)c1 [Trametinib] (partner 0.02 µM)
How it was run: as §1

[3] = compound: CC1=C(CC(=O)O)c2cc(F)ccc2/C1=C\c1ccc([S+](C)[O-])cc1 [Sulindac] + CC1(C)CCC(c2ccc(Cl)cc2)=C(CN2CCN(c3ccc(C(=O)NS(=O)(=O)c4ccc(N[C@H](CCN5CCOCC5)CSc5ccccc5)c(S(=O)(=O)C(F)(F)F)c4)cc3)CC2)C1 [Navitoclax] (partner 0.5 µM)
How it was run: as §1

[4] = compound: CC1=C(CC(=O)O)c2cc(F)ccc2/C1=C\c1ccc([S+](C)[O-])cc1 [Sulindac] + Cc1nc(NC(=O)N2CCC[C@H]2C(N)=O)sc1-c1ccnc(C(C)(C)C(F)(F)F)c1 [Alpelisib] (partner 2 µM)
How it was run: as §1

| Cell Line | relative viability ([1]; first compound 0.005 µM) | relative viability ([1]; first compound 0.01581 µM) | relative viability ([1]; first compound 0.05 µM) | relative viability ([1]; first compound 0.1581 µM) | relative viability ([1]; first compound 0.5 µM) | relative viability ([2]; first compound 0.005 µM) | relative viability ([2]; first compound 0.01581 µM) | relative viability ([2]; first compound 0.05 µM) | relative viability ([2]; first compound 0.1581 µM) | relative viability ([2]; first compound 0.5 µM) | relative viability ([3]; first compound 0.08 µM) | relative viability ([3]; first compound 0.253 µM) | relative viability ([3]; first compound 2.53 µM) | relative viability ([3]; first compound 8 µM) | relative viability ([4]; first compound 0.08 µM) | relative viability ([4]; first compound 0.253 µM) | relative viability ([4]; first compound 2.53 µM) | relative viability ([4]; first compound 8 µM) | relative viability ([3]; first compound 0.8 µM) | relative viability ([4]; first compound 0.8 µM) |
| --- | --- | --- | --- | --- | --- | --- | --- | --- | --- | --- | --- | --- | --- | --- | --- | --- | --- | --- | --- | --- |
| HARA | 0.682 | 0.363 | 0.156 | 0.126 | 0.131 | 0.365 | 0.401 | 0.2 | 0.132 | 0.118 | 1.21 | 1.24 | 1.18 | 1.14 | 1.07 | 0.952 | 0.918 | 0.785 | – | – |
| HCC-15 | 0.613 | – | 0.532 | 0.286 | 0.205 | 0.305 | – | 0.192 | 0.192 | 0.165 | 0.811 | 0.795 | 0.708 | 0.798 | 0.989 | 0.957 | 0.828 | 0.968 | 0.625 | 0.813 |
| HCC-44 | 1.04 | – | 0.75 | 0.456 | 0.351 | 1.04 | – | 0.444 | – | 0.322 | 1.21 | 1.08 | 1.15 | 1.02 | 0.928 | 0.987 | 0.891 | 0.821 | 0.904 | 0.761 |
| HCC-78 | 0.98 | 0.638 | 0.654 | 0.455 | 0.417 | 0.806 | 0.676 | 0.484 | 0.407 | 0.428 | 0.784 | 0.716 | 0.71 | 0.77 | 0.353 | 0.387 | 0.27 | 0.374 | 0.711 | 0.352 |
| HCC-366 | 0.247 | – | 0.12 | 0.0287 | 0.0185 | 0.242 | – | 0.0839 | 0.0291 | 0.0289 | 1.32 | 1.19 | 0.957 | 1.18 | 0.527 | 0.471 | 0.527 | 0.622 | 0.817 | 0.407 |
| HCC-827 | 0.666 | 0.5 | 0.467 | 0.322 | 0.22 | 0.625 | 0.641 | 0.357 | 0.313 | 0.231 | 1.04 | 1.02 | 0.973 | 1.08 | 0.985 | 0.979 | 0.943 | 1.11 | 0.997 | 0.839 |
| IA-LM | 0.562 | 0.51 | 0.412 | 0.215 | 0.0689 | – | – | – | – | – | 0.696 | 0.863 | 0.81 | 0.79 | 0.825 | 0.955 | 0.977 | 1.13 | – | – |
| LCLC-103H | 0.851 | 0.477 | 0.403 | 0.247 | – | 0.685 | 0.472 | 0.445 | 0.331 | 0.332 | – | – | – | – | 1.06 | 1.07 | 0.869 | 1.09 | – | 0.892 |
| NCI-H358 | 0.519 | 0.403 | 0.0954 | 0.0798 | 0.058 | 0.157 | 0.111 | 0.0885 | 0.0815 | 0.0672 | – | – | – | – | 1.01 | 0.878 | 0.808 | 1.1 | – | 0.684 |
| NCI-H522 | 0.669 | 0.685 | 0.53 | 0.471 | 0.429 | 0.667 | 0.775 | 0.627 | 0.623 | 0.59 | – | – | – | – | – | – | – | – | – | – |
| NCI-H650 | 0.313 | 0.246 | 0.25 | 0.229 | 0.124 | 1.07 | 0.383 | 0.27 | 0.222 | 0.151 | – | – | – | – | 1.05 | 1.1 | 1.02 | 1.17 | – | 0.578 |
| NCI-H661 | 0.65 | 0.556 | 0.521 | 0.333 | 0.175 | 0.522 | 0.336 | 0.29 | 0.248 | 0.137 | – | – | – | – | 0.639 | 0.551 | 0.621 | 0.725 | – | 0.535 |
| NCI-H1299 | 0.493 | 0.263 | 0.251 | 0.117 | – | – | – | – | – | – | 1.11 | 1.05 | 1.05 | 1.05 | 1.23 | 1.19 | 1.2 | 1.08 | 1.02 | 0.624 |
| NCI-H1563 | – | – | – | – | – | – | – | – | – | – | – | – | – | – | 0.915 | 0.853 | 0.884 | 0.923 | – | 0.86 |
| NCI-H1648 | 0.893 | 0.376 | 0.311 | 0.257 | 0.259 | 0.586 | 0.299 | 0.0693 | 0.25 | 0.265 | – | – | – | – | – | – | – | – | – | – |
| NCI-H1650 | 0.703 | 0.598 | 0.385 | 0.306 | 0.0918 | 0.501 | 0.364 | 0.187 | 0.112 | 0.0438 | 1.23 | 1.12 | 1.04 | 1.38 | – | – | – | – | 1.16 | – |
| NCI-H1703 | 0.269 | 0.165 | 0.237 | 0.112 | 0.106 | – | – | – | – | – | 1.14 | 0.978 | 1.1 | 1.45 | 0.37 | 0.346 | 0.461 | 0.341 | 0.877 | 0.301 |
| NCI-H2342 | 0.436 | 0.315 | 0.363 | 0.398 | 0.394 | 0.948 | 0.675 | 0.499 | 0.417 | 0.363 | – | – | – | – | – | – | – | – | – | – |
| SW 900 | 0.544 | 0.428 | 0.362 | 0.212 | 0.169 | 0.494 | 0.366 | 0.444 | 0.128 | 0.164 | – | – | – | – | – | – | – | – | – | – |
